The record followed here is patent publication US20050197350A1, “Novel quinoline, tetrahydroquinazoline, and pyrimidine derivatives and methods of treatment related to the use thereof” (TAISHO PHARMACEUTICAL CO., LTD., priority 2003, published 2005).

The test has as its target MCH receptor (Homo sapiens, UniProt Q99705). As to the kind of experiment: High throughput functional screening FLIPR/FDSS6000 (intracellular Ca2+ evoked by MCH). In kind it is cell-based. To be noted: FLIPR/FDSS, antagonist activity vs 50 nM MCH; class by percent of control at 10^−7 M or IC50; read-out: class. An outline of the steps:
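For antagonist testing, compound-treated cells (30 min, 37 °C) were stimulated with 50 nM MCH and intracellular Ca2+ followed by Fluo4 fluorescence on FLIPR/FDSS6000. Receptor was a constitutively active, non-endogenous MCH receptor; dye loading 4 μM Fluo4-AM, 1 h, 37 °C.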

Regarding `Cc1cnc(N[C@H]2CC[C@@H](NC(=O)N(C)c3ccc(Cl)cc3Cl)CC2)nc1N(C)C` [Example 3348, N-(2,4-dichlorophenyl)-N′-(cis-4-{[4-(dimethylamino)-5-methylpyrimidin-2-yl]amino}cyclohexyl)-N-methylurea], the IC50 was < 0.05 µM. As for `CCN(C(=O)N[C@H]1CC[C@@H](Nc2ncc(C)c(N(C)C)n2)CC1)c1ccccc1OC(F)(F)F` [Example 3349, N′-(cis-4-{[4-(dimethylamino)-5-methylpyrimidin-2-yl]amino}cyclohexyl)-N-ethyl-N-[2-(trifluoromethoxy)-phenyl]urea], the IC50 fell in the range of 0.05 to 0.2 µM. The result for `CCN(C(=O)N[C@H]1CC[C@@H](Nc2ncc(C)c(N(C)C)n2)CC1)c1ccccc1` [Example 3350, N′-(cis-4-{[4-(dimethylamino)-5-methylpyrimidin-2-yl]amino}cyclohexyl)-N-ethyl-N-phenylurea] reads < 0.05 µM; that for `CCN(C(=O)N[C@H]1CC[C@@H](Nc2ncc(C)c(N(C)C)n2)CC1)c1ccc(OC(F)(F)F)cc1` [Example 3351, N′-(cis-4-{[4-(dimethylamino)-5-methylpyrimidin-2-yl]amino}cyclohexyl)-N-ethyl-N-[4-(trifluoromethoxy)-phenyl]urea], < 0.05 µM; that for `Cc1cnc(N[C@H]2CC[C@@H](NC(=O)N(C)c3ccccc3OC(F)(F)F)CC2)nc1N(C)C` [Example 3352, N′-(cis-4-{[4-(dimethylamino)-5-methylpyrimidin-2-yl]amino}cyclohexyl)-N-methyl-N-[2-(trifluoromethoxy)-phenyl]urea], < 0.05 µM.

On to `CCN(C(=O)N[C@H]1CC[C@@H](Nc2ncc(C)c(N(C)C)n2)CC1)c1ccc(Cl)cc1` [Example 3353, N-(4-chlorophenyl)-N′-(cis-4-{[4-(dimethylamino)-5-methylpyrimidin-2-yl]amino}cyclohexyl)-N-ethylurea], for which the IC50 was < 0.05 µM.

Consider `CCN(C(=O)N[C@H]1CC[C@@H](Nc2ncc(C)c(N(C)C)n2)CC1)c1cc(C(F)(F)F)cc(C(F)(F)F)c1` [Example 3354, N-[3,5-bis(trifluoromethyl)phenyl]-N′-(cis-4-{[4-(dimethylamino)-5-methylpyrimidin-2-yl]amino}cyclohexyl)-N-ethylurea], for which the IC50 was < 0.05 µM.

For the compound `CCN(C(=O)N[C@H]1CC[C@@H](Nc2ncc(C)c(N(C)C)n2)CC1)c1cccc(C)c1` [Example 3355, N′-(cis-4-{[4-(dimethylamino)-5-methylpyrimidin-2-yl]amino}cyclohexyl)-N-ethyl-N-(3-methylphenyl)urea], the IC50 is < 0.05 µM. Next, `Cc1cnc(N[C@H]2CC[C@@H](NC(=O)COc3cc(C(F)(F)F)nn3C)CC2)nc1N(C)C` [Example 3356, N-(cis-4-{[4-(dimethylamino)-5-methylpyrimidin-2-yl]amino}cyclohexyl)-2-{[1-methyl-3-(trifluoromethyl)-1H-pyrazol-5-yl]oxy}acetamide]: < 0.05 µM; `Cc1cnc(N[C@H]2CC[C@@H](NC(=O)COc3cc(C(F)(F)F)ncn3)CC2)nc1N(C)C` [Example 3357, N-(cis-4-{[4-(dimethylamino)-5-methylpyrimidin-2-yl]amino}cyclohexyl)-2-{[6-(trifluoromethyl)pyrimidin-4-yl]oxy}acetamide]: > 0.2 µM; `CNc1cc(C)nc(N[C@H]2CC[C@@H](NC(=O)COc3ccc(Cl)c(Cl)c3)CC2)n1` [Example 3360, 2-(3,4-dichlorophenoxy)-N-(cis-4-{[4-methyl-6-(methylamino)pyrimidin-2-yl]amino}cycohexyl)acetamide]: < 0.05 µM. The result for `CNc1nc(N[C@H]2CC[C@@H](NC(=O)COc3cc(C(F)(F)F)nn3C)CC2)ncc1C` [Example 3362, N-(cis-4-{[5-methyl-4-(methylamino)pyrimidin-2-yl]amino}-cyclohexyl)-2-{[1-methyl-3-(trifluoromethyl)-1H-pyrazol-5-yl]oxy}acetamide] reads > 0.2 µM; that for `CNc1nc(N[C@H]2CC[C@@H](NC(=O)COc3cc(C(F)(F)F)ncn3)CC2)ncc1C` [Example 3363, N-(cis-4-{[5-methyl-4-(methylamino)pyrimidin-2-yl]amino}-cyclohexyl)-2-{[6-(trifluoromethyl)pyrimidin-4-yl]oxy}acetamide], > 0.2 µM. Next, `CNc1nc(N[C@H]2CC[C@@H](NC(=O)COc3cc(C(F)(F)F)n(C)n3)CC2)ncc1C` [Example 3364, N-(cis-4-{[5-methyl-4-(methylamino)pyrimidin-2-yl]amino}-cyclohexyl)-2-{[1-methyl-5-(trifluoromethyl)-1H-pyrazol-3-yl]oxy}acetamide]: > 0.2 µM. Take `Cc1cc(CN[C@H]2CC[C@@H](NC(=O)c3ccc(F)c(F)c3)CC2)nc2ccccc12` [Example 3366, 3,4-difluoro-N-(cis-4-{[(4-methylquinolin-2-yl)methyl]amino}cyclohexyl)benzamide]: the IC50 is > 0.2 µM.

For the compound `Cc1cc(N(C)C)nc(N[C@H]2CC[C@@H](NC(=O)c3cccnc3S(=O)(=O)c3ccc(F)cc3)CC2)n1` [Example 3368, N-(cis-4-{[4-(dimethylamino)-6-methylpyrimidin-2-yl]amino}cyclohexyl)-2-[(4-fluorophenyl)sulfonyl]nicotinamide], the IC50 was 0.05 to 0.2 µM.

`Cc1cc(N(C)C)nc(N[C@H]2CC[C@@H](NC(=O)c3cccnc3S(=O)(=O)c3ccccc3Cl)CC2)n1` [Example 3369, 2-[(2-chlorophenyl)sulfonyl]-N-(cis-4-{[4-(dimethylamino)-6-methylpyrimidin-2-yl]amino}cyclohexyl)nicotinamide]: the IC50 was in the range of 0.05 to 0.2 µM. Next, `Cc1cc(N(C)C)nc(N[C@H]2CC[C@@H](NC(=O)c3cccnc3S(=O)(=O)c3cccc(Cl)c3)CC2)n1` [Example 3370, 2-[(3-chlorophenyl)sulfonyl]-N-(cis-4-{[4-(dimethylamino)-6-methylpyrimidin-2-yl]amino}cyclohexyl)nicotinamide]: 0.05 to 0.2 µM. Next, `Cc1cc(N(C)C)nc(N[C@H]2CC[C@@H](NC(=O)c3cccnc3S(=O)(=O)c3ccc(Cl)cc3)CC2)n1` [Example 3371, 2-[(4-chlorophenyl)sulfonyl]-N-(cis-4-{[4-(dimethylamino)-6-methylpyrimidin-2-yl]amino}cyclohexyl)nicotinamide]: > 0.2 µM; `Cc1cc(N(C)C)nc(N[C@H]2CC[C@@H](NC(=O)c3cccnc3S(=O)(=O)c3ccccc3Br)CC2)n1` [Example 3372, 2-[(2-bromophenyl)sulfonyl]-N-(cis-4-{[4-(dimethylamino)-6-methylpyrimidin-2-yl]amino}cyclohexyl)nicotinamide]: > 0.2 µM; `Cc1cc(N(C)C)nc(N[C@H]2CC[C@@H](NC(=O)c3cccnc3S(=O)(=O)c3cccc(Br)c3)CC2)n1` [Example 3373, 2-[(3-bromophenyl)sulfonyl]-N-(cis-4-{[4-(dimethylamino)-6-methylpyrimidin-2-yl]amino}cyclohexyl)nicotinamide]: 0.05 to 0.2 µM.

Consider `Cc1cc(N(C)C)nc(N[C@H]2CC[C@@H](NC(=O)c3cccnc3S(=O)(=O)c3ccc(Br)cc3)CC2)n1` [Example 3374, 2-[(4-bromophenyl)sulfonyl]-N-(cis-4-{[4-(dimethylamino)-6-methylpyrimidin-2-yl]amino}cyclohexyl)nicotinamide], for which the IC50 was > 0.2 µM. As for `Cc1cc(N(C)C)nc(N[C@H]2CC[C@@H](NC(=O)c3cccnc3S(=O)(=O)c3ccccc3C)CC2)n1` [Example 3375, N-(cis-4-{[4-(dimethylamino)-6-methylpyrimidin-2-yl]amino}cyclohexyl)-2-[(2-methylphenyl)sulfonyl]nicotinamide], the IC50 lay in the range of 0.05 to 0.2 µM.

Consider `Cc1cccc(S(=O)(=O)c2ncccc2C(=O)N[C@H]2CC[C@@H](Nc3nc(C)cc(N(C)C)n3)CC2)c1` [Example 3376, N-(cis-4-{[4-(dimethylamino)-6-methylpyrimidin-2-yl]amino}cyclohexyl)-2-[(3-methylphenyl)sulfonyl]nicotinamide], for which the IC50 was > 0.2 µM. Next, `Cc1ccc(S(=O)(=O)c2ncccc2C(=O)N[C@H]2CC[C@@H](Nc3nc(C)cc(N(C)C)n3)CC2)cc1` [Example 3377, N-(cis-4-{[4-(dimethylamino)-6-methylpyrimidin-2-yl]amino}cyclohexyl)-2-[(4-methylphenyl)sulfonyl]nicotinamide]: 0.05 to 0.2 µM. For `COc1ccccc1S(=O)(=O)c1ncccc1C(=O)N[C@H]1CC[C@@H](Nc2nc(C)cc(N(C)C)n2)CC1` [Example 3378, N-(cis-4-{[4-(dimethylamino)-6-methylpyrimidin-2-yl]amino}cyclohexyl)-2-[(2-methoxyphenyl)sulfonyl]-nicotinamide], the IC50 was > 0.2 µM. Next, `COc1cccc(S(=O)(=O)c2ncccc2C(=O)N[C@H]2CC[C@@H](Nc3nc(C)cc(N(C)C)n3)CC2)c1` [Example 3379, N-(cis-4-{[4-(dimethylamino)-6-methylpyrimidin-2-yl]amino}cyclohexyl)-2-[(3-methoxyphenyl)sulfonyl]-nicotinamide]: > 0.2 µM.

For the compound `COc1ccc(S(=O)(=O)c2ncccc2C(=O)N[C@H]2CC[C@@H](Nc3nc(C)cc(N(C)C)n3)CC2)cc1` [Example 3380, N-(cis-4-{[4-(dimethylamino)-6-methylpyrimidin-2-yl]amino}cyclohexyl)-2-[(4-methoxyphenyl)sulfonyl]-nicotinamide], the IC50 is > 0.2 µM.

For `Cc1cc(N(C)C)nc(N[C@H]2CC[C@@H](NC(=O)c3cccnc3S(=O)(=O)c3ccccc3C(F)(F)F)CC2)n1` [Example 3381, N-(cis-4-{[4-(dimethylamino)-6-methylpyrimidin-2-yl]amino}cyclohexyl)-2-{[2-(trifluoromethyl)phenyl]-sulfonyl}nicotinamide], the IC50 was > 0.2 µM. Next, `Cc1cc(N[C@H]2CC[C@@H](NC(=O)c3ccc(OC(F)(F)F)cc3)CC2)nc2ccccc12` [Example 3382, N-{cis-4-[(4-methylquinolin-2-yl)amino]cyclohexyl}-4-(trifluoromethoxy)benzamide]: < 0.05 µM.
